Where a SMILES comes first, the peptide text is derived from it. The star is where a group is joined. Cbz = O=C(OCc1ccccc1)*; CH2F = FC*
Key:
[1] = tested on: PARP cleavage in Jurkat cells; assay: Effect of Z-VD-fmk on PARP cleavage in antiFas-treated Jurkat cells (Example 24); type: cell-based, human
Description: Poly(ADP)ribose polymerase (PARP) was one of the first caspase-3 substrates identified and the cleavage of PARP is still considered to be a near-universal marker for caspase-3 activation and caspase-mediated apoptosis. The ability of an anti-apoptotic compound to block PARP cleavage is therefore a useful indicator of its ability to inhibit apoptosis. The potency of Z-VD-fmk in a PARP cleavage assay was tested using antiFas-treated Jurkat cells. 2×10^6 Jurkat cells were seeded in each well of a 6-well dish and pre-incubated with test compounds for 30 minutes. The cells were then challenged with 500 ng/mL of an agonistic antiFas antibody or PBS for 4 hours. The cells were then harvested, pelleted gently, washed two times with PBS and lysed in RIPA buffer. Aliquots of the lysate were analyzed by SDS-PAGE and the proteins were transferred to PVDF membranes for Western blotting. The primary antibody was a polyclonal antiPARP serum which cross-reacts with both full-length PARP and the caspase-3-generated cleavage product.

HeLa cells = assay: Effect of Z-VD-fmk on TNF-α-induced cell death in HeLa cells (calcein AM, Example 25); type: cell-based; conditions: below 1 μM (data not shown)
Description: Tumor necrosis factor alpha (TNF-α) can trigger apoptosis in a number of cell types by initiating the caspase cascade and its apoptosis inducing activity can be inhibited by peptide-based caspase inhibitors. However, high concentrations of the inhibitors (50 μM or greater) is required to have good anti-apoptotic effect. HeLa cells, a cell line commonly employed in TNF-α cell death studies, was used here to determine the anti-apoptotic potency of Z-VD-fmk.
HeLa cells were seeded in 48-well multidishes at a density of 50,000 cells per well 24 hours before treatment. They were then pre-incubated with varying concentrations of Z-VD-fmk for 2 hours and challenged with TNF-α (25 ng/mL) and cycloheximide (CHX; 30 μg/mL). The cultures were incubated for an additional 24 hours and dead cells were removed by two washes with PBS. The density of surviving cells was then measured by incubating each culture for 45 minutes with calcein AM, a profluorescent dye which is taken up by living cells and converted to a fluorescent product. The resulting data were expressed as % control values (control values were cells incubated with cycloheximide but without TNF-α).
Z-VD-fmk provided good cytoprotection at concentrations approaching 100 nM.

Compound: COC(=O)C[C@H](NC(=O)[C@H](C)NC(=O)[C@@H](NC(=O)OCc1ccccc1)C(C)C)C(=O)CF [Z-VAD-fmk, reference compound] (Cbz-Val-Ala-Asp(OMe)-CH2F)
- inhibition of PARP cleavage ([1]; 500 nM, antiFas-treated Jurkat cells): much less effective
- inhibition of PARP cleavage ([1]; 5 μM, antiFas-treated Jurkat cells (data not shown)): effective inhibitor
- cytoprotection against TNF-α-induced cell death (HeLa cells): loses much of its cytoprotective properties

— patent US6949516B2, “Dipeptide apoptosis inhibitors and the use thereof” (Cytovia, Inc., priority 1997, dated 2005)
